The values that follow come from patent US20210252015A1, “CERTAIN (2S)-N-[(1S)-1-CYANO-2-PHENYLETHYL]-1,4-OXAZEPANE-2-CARBOXAMIDES FOR TREATING INFLAMMATORY BOWEL DISEASE” (Insmed Incorporated, priority 2018, published 2021).

The test deals with DSS-induced colitis in C57BL/6 mice. The experiment in a line: DSS-induced colitis murine study, Example 1B (endoscopy, stool consistency, body weight). Format: in vivo. The source says:
Mice: Ninety-five (95) male C57BL/6 mice with an average starting body weight (SEM) of 20.6 g (+0.16 g) were obtained from Charles River Laboratories (Wilmington, Mass.). Animals were acclimatized prior to the study. During this period, the animals were observed daily in order to reject any that presented in poor condition. Animals were fed with 5053 sterile rodent diet and water was provided ad libitum.
Solutions: The INS1007 Solution, Anti-p40 mAb solution and DSS Induction Solution were prepared and stored as described in Example 1A. […]
All animals were weighed daily and assessed visually for the presence of diarrhea and/or bloody stool at the time of dosing. […] Colitis severity was scored using the scale described in Example 1A. Stool consistency was scored during endoscopy using the parameters defined in Table 2. […]
Animals underwent endoscopy on Days 10 and 14, in order to assess colonic inflammation. Colitis was scored visually on a five-point scale using the method described in Example 1A. Stool consistency was scored visually on a five-point scale using the method described in Example 1A. […]
To determine the statistical significance of overall differences in mean percent body weight change between groups, the area under the curve (AUC) was calculated using the trapezoidal rule transformation and is shown in the FIG. 9.

As for `Cn1c(=O)oc2ccc(-c3ccc(C[C@@H](C#N)NC(=O)[C@@H]4CNCCCO4)cc3)cc21` [INS1007, (2S)—N-{(1S)-1-cyano-2-[4-(3-methyl-2-oxo-2,3-dihydro-1,3-benzoxazol-5-yl)phenyl]ethyl}-1,4-oxazepane-2-carboxamide], where the note is “Day 14, INS1007 0.3 mg/kg PO BID (Group 3), vs vehicle control (Group 2)”, the mean endoscopy score result was “reduced”. In addition, the “body weight loss (AUC, calculated based on Day -7)” value (INS1007 1 mg/kg PO BID (Group 4), vs Group 2 (3% DSS+vehicle)) is “significantly decreased”.
